Entries after “also recorded” stand apart in the source; their conditions may differ.
Legend:
iNOS mRNA = test: RT-PCR of iNOS mRNA expression in primary microglia cells activated by lipopolysaccharide; format: cell-based, Sprague-Dawley rat; conditions: 100 ng/ml lipopolysaccharide co-treated with 0.1, 1 uM, 24 hours
Experimental: To investigate the inhibition of iNOS mRNA expression by acetylshikonin, […] was performed.
The primary microglia cells cultured in DMEM supplemented with 10% FBS and 1% penicillin-streptomycin were distributed in a 6 well plate at the concentration of 4×10^6 cells/well, followed by culture for 24 hours. 100 ng/ml of lipopolysaccharide and 0.1, 1 uM of acetylshikonin were co-treated thereto, followed by activation of the cells for 24 hours. The control group was not treated with lipopolysaccaride. After 24 hours of activation, the culture medium was discarded and the cells were washed with cold PBS ([…]), to which trypsin was treated. 1 ml of PBS containing the cells was obtained, followed by centrifugation at 12,000 rpm for 2 minutes to separate the cells. The cells were lysed in RNA separation solution (easyblue) to extract RNA from the cells, followed by centrifugation at 12,000 rpm for 15 minutes. After treating chloroform, centrifugation was performed again at 13,000 rpm for 25 minutes and the supernatant was obtained and washed with isopropanol to extract RNA. cDNA was synthesized using 5 ug of the RNA and 5 μmol of primer at 45° C., followed by PCR. […]

TNF-alpha mRNA = test: RT-PCR of TNF-alpha mRNA expression in primary microglia cells activated by lipopolysaccharide; format: cell-based, Sprague-Dawley rat; conditions: 100 ng/ml lipopolysaccharide co-treated with 0.1, 1 uM, 24 hours
IL-1beta mRNA = test: RT-PCR of IL-1beta mRNA expression in primary microglia cells activated by lipopolysaccharide; format: cell-based, Sprague-Dawley rat; conditions: 100 ng/ml lipopolysaccharide co-treated with 0.1, 1 uM, 24 hours
[1] = tested on: primary microglia cells activated by lipopolysaccharide; test: NO generation (Griess reagent) in primary microglia cells activated by lipopolysaccharide; format: cell-based, Sprague-Dawley rat; conditions: 100 ng/ml lipopolysaccharide
Experimental: (§1) To investigate the effect of acetylshikonin on the activation of microglia cells which are macrophages in brain, NO generation was measured in BV-2 cells and primary microglia cells which are neuroglia cells, activated by lipopolysaccharide according to the previously reported methods with slight modifications (Min Kim J, et al., Neuroreport, 14(15), pp1941-1944, 2003).
(§2) BV-2 cells (Lab. of Dr. Eui-Ju Choi, Korea University) were maintained in DMEM (Dulbeccols Modified Eagle Medium, Gibco-BRL, England) supplemented with 10% FBS (Fetal Bovine Serum, Gibco-BRL, England) and 1% penicillin-streptomycin (Gibco-BRL, England). To obtain the primary microglia cells, brain cells were separated from the brain extracted from Sprague-Dawley rat (Taconic, Japan) at less than 1 week from the birth and the cells were cultured for approximately 2 weeks in DMEM having the same composition with the one used for BV-2 cell culture in a 75T flask and then the primary microglia cells were recovered. BV-2 cells and the primary microglia cells were distributed into a 96 well plate at the concentration of […] and then cultured in a 37° C., 5% CO2 incubator for overnight. […] OD570 was measured by Elyzerleader (Moleulat Device, USA) and the concentration was calculated by considering the level of sodium nitrite as standard.

iNOS = test: Western blot of iNOS expression in primary microglia cells activated by lipopolysaccharide; format: cell-based, Sprague-Dawley rat; conditions: 100 ng/ml lipopolysaccharide co-treated with 0.1, 1 uM, 24 hours
Experimental: (§3) Western blot analysis was performed to investigate the inhibition of iNOS expression by acetylshikonin.
(§4) The primary microglia cells cultured in DMEM supplemented with 10% FBS and 1% penicillin-streptomycin were distributed in a 6 well plate at the concentration of 4×10^6 cells/well, followed by culture for 24 hours. 100 ng/ml of lipopolysaccharide and 0.1, 1 uM of acetylshikonin were co-treated thereto, followed by activation of the cells for 24 hours. The control group was not treated with lipopolysaccaride. After 24 hours of activation, the culture medium was discarded and the cells were washed with cold PBS, to which trypsin was treated. 1 ml of PBS containing the cells was obtained, followed by centrifugation at 12,000 rpm for 2 minutes to separate the cells. The cells were loaded in 50 μl of triple lysis buffer to decompose all the cell membranes and then centrifugation was performed at 12,000 rpm for 30 minutes to obtain supernatant, a protein layer. The obtained supernatant was diluted and protein was quantified by Bradford method. After quantification, an equal amount of protein proceeded onto 8% polyacrylamide gel electrophoresis. The separated proteins from the electrophoresis were transferred onto Hybond ECL nitrocellulose membrane, leading to the reaction with primary and secondary antibodies of iNOS and IL-1beta. ECL examination was performed.

IL-1beta = test: Western blot of IL-1beta expression in primary microglia cells activated by lipopolysaccharide; format: cell-based, Sprague-Dawley rat; conditions: 100 ng/ml lipopolysaccharide co-treated with 0.1, 1 uM, 24 hours
Experimental: as §3, §4

[2] = tested on: rats with local brain ischemia induced by middle cerebral arterial occlusion; test: Defensive effect in rats with local brain ischemia induced by middle cerebral arterial occlusion (TTC staining, infarct volume); format: in vivo, Sprague-dawley male rats; conditions: right after and 120 minutes after brain ischemia was induced, MCAo 120 min, 22 hours reperfusion
Experimental: Sprague-dawley male rats at 8 weeks having the weight of 280 g-300 g were purchased from Samtako, Inc., Korea. The rats were supplied with feed and water enough and adapted to the experimental environment for one week. Middle cerebral arterial occlusion was performed by intraluminal suture method based on the method of Zea longa, et al (Zea longa, et al., Stroke, 20, pp 84-91, 1989). Once middle cerebral artery of a rat is closed, blood flow is interrupted around middle cerebral arterial region so that oxygen and other energy source are exhausted, leading to cell death. In particular, tissue necrosis is observed in the center of the middle cerebral arterial region, striatum and temporal lobe, which is so called 'ischemic core'. Although not middle cerebral arterial region, the neighboring cells begin to be auto-destroyed, which is called '[…] penumbra'. 3 hours after blocking middle cerebral artery, necrosis starts and from 6 hours after blocking, cerebral ischemia is developed. The progress of cerebral ischemia continues for 24 hours after middle cerebral artery was closed for 120 minutes, and on the 3rd day, it reaches the highest degree. To measure the level of cerebral ischemia, it is necessary to measure correlated infarct volume (mm^3). […] Blood sugar and blood gas were measured from the blood sample. […]

[3] = tested on: BV-2 cells activated by lipopolysaccharide; test: NO generation (Griess reagent) in BV-2 cells activated by lipopolysaccharide; format: cell-based; conditions: 100 ng/ml lipopolysaccharide
Experimental: as §1, §2

[4] = 24 hours, 0.1, 0.5 and 1 uM tested, inhibition stated at 1 uM
[5] = 24 hours, 0.5 mM positive control

Row | Structure (SMILES) | expression of mRNA of iNOS (iNOS mRNA) | expression of mRNA of TNF-alpha (TNF-alpha mRNA) | expression of mRNA of IL-1beta (IL-1beta mRNA) | NO generation [1, 4] | expression of iNOS (protein) (iNOS) | expression of IL-1beta (protein) (IL-1beta) | protective effect on brain tissue damage, compared with the control ([2]; 1 mg/kg orally) [%] | protective effect on brain tissue damage, compared with the control ([2]; 3 mg/kg orally) [%] | NO generation [3, 4] | NO generation [1, 5] | NO generation [3, 5]
1 | CC(=O)O[C@H](CC=C(C)C)C1=CC(=O)c2c(O)ccc(O)c2C1=O [acetylshikonin] | inhibited | inhibited | inhibited | inhibited the generation of nitric oxide dose dependently; also recorded: inhibition of NO generation | inhibited | inhibited | ~46.88 | 68.75 | inhibited the generation of nitric oxide dose dependently; also recorded: inhibition of NO generation | – | –
2 | CNC(=N)NCCC[C@H](N)C(=O)O [positive control, N super(G)-monomethyl-L-arginine, reference compound] | – | – | – | – | – | – | – | – | – | inhibition of NO generation | inhibition of NO generation
